System: TPA-induced Mouse Ear Inflammation
Assay: Assay (g): TPA-induced Mouse Ear Inflammation (ear edema and MPO)
Format: in vivo
Conditions: "this animal model"; topical
From the text: The ability of compounds that inhibit CoA-IT and/or PLA2 to affect in vivo inflammatory responses may be assessed. Inflammatory responses are induced in the mouse ear by the topical application of a pro-inflammatory agent, such as 12-0-tetradecanoylphorbol 13-acetate (assay g). This produces an edematous response, as measured by increases in ear thickness, as well as increased inflammatory cellular infiltrate, as measured by increases in myeloperoxidase activity (as described in the methods). To further validate the mechanism of action inflammation induced by the direct adminstration of arachidonic acid can be used. In this case compounds altering arachidonic acid mobilization or liberation should be with our effect.
Male Balb/c inbred mice were obtained from Charle River Breeding Laboratories (Kingston, N.Y.). Within a single experiment mice (22-25 g) were age-matched. These in vivo experiments typically involved use of 5-6 animals/group.
TPA (12-0-tetradecanoylphorbol 13-acetate) (Sigma Chemical Company) in acetone ([…]) was applied to the inner and outer surfaces of the left ear of BALB/c male mice. The thickness of both ears was then measured with a dial micrometer (Mitutoyo, Japan) at both 2 and 4 hours after treatment, and the data expressed as the change in thickness (10^-3 cm) between treated and untreated ears. […] After measuring the edema, the inflammed left ears were removed and stored at -70° C. until they were assayed for MPO (myeloperoxidase) activity where appropriate.
On the day of the assay, partially thawed ear tissues were minced and then homogenized (10% w/v) with a Tissumizer homogenizer (Tekmar Co.) in 50 mM phosphate buffer (pH 6) containing 0.5% HTAB. The tissue homogenates were taken through three cycles of freeze-thaw, followed by brief sonication (10 sec). The method of Bradley et al. was used with modifications as described. The appearance of a colored product from the MPO-dependent reaction of o-dianisidine (0.167 mg/ml; Sigma) and hydrogen peroxide (0.0005%; Sigma) was measured spectrophotometrically at 460 nm. Supernatant MPO activity was quantified kinetically (change in absorbance measured over 3 min, sampled at 15-sec intervals) using a Beckman DU-7 spectrophotometer and a Kinetics Analysis package (Beckman Instruments, Inc.). One unit of MPO activity is defined as that degrading one micromole of peroxide per minute at 25° C.
Statistical analysis was done using Student's "t" test. The ED50 are values which cause a 50% inhibition of the inflammatory response and are calculated by regression analysis of the dose response data.

Row | Compound | inhibition in mouse ear inflammation animal model
1 | O=C(Nc1cc(C(F)(F)F)cc(C(F)(F)F)c1)Nc1ccccc1Oc1ccccc1C(=O)O [Example 2, 2-[2-[3-[3,5-Bis (trifluoromethyl)phenyl]ureido]phenoxy]benzoic acid] | positive inhibition
2 | O=C(Nc1cc(C(F)(F)F)cc(C(F)(F)F)c1)Nc1cc(C(F)(F)F)ccc1Oc1ccccc1C(=O)O [Example 7, 2-[2-[3-[3,5-Bis(trifluoromethyl)phenyl]ureido]-4-trifluoromethylphenoxy]benzoic acid] | positive inhibition

— patent US5447957A, “Anti-inflammatory compounds” (SmithKline Beecham Corp., priority 1994, dated 1995)
